Activity calls are given as the source filed them. The calls are words filed in the database; no cut-off is given here.
Legend:
[1] = target: T1, Peroxisome proliferator-activated receptor gamma (Homo sapiens, UniProt P37231); experiment: Transactivation of GAL4-tagged human PPARgamma LBD expressed in human HepG2 cells after 20 hrs by luciferase reporter gene assay; type: cell-based
T1 sequence (P37231 whole entry): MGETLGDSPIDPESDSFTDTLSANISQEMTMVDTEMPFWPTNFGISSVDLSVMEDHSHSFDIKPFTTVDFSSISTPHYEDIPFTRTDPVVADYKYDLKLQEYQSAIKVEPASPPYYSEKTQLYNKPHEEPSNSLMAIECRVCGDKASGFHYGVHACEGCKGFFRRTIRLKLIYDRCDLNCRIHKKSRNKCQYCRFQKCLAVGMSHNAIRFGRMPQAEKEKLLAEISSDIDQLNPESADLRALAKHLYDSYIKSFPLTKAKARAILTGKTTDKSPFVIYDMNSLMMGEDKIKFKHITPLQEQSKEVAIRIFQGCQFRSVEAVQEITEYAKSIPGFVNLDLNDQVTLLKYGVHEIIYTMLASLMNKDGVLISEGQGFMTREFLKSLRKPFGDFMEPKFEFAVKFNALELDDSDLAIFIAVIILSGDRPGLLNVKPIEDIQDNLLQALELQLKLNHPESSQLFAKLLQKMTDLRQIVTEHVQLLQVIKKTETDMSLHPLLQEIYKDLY

[2] = target: T2, Peroxisome proliferator-activated receptor alpha (Homo sapiens, UniProt Q07869); experiment: Transactivation of GAL4-tagged human PPARalpha LBD expressed in human HepG2 cells after 20 hrs by luciferase reporter gene assay; type: cell-based
T2 sequence (Q07869 whole entry): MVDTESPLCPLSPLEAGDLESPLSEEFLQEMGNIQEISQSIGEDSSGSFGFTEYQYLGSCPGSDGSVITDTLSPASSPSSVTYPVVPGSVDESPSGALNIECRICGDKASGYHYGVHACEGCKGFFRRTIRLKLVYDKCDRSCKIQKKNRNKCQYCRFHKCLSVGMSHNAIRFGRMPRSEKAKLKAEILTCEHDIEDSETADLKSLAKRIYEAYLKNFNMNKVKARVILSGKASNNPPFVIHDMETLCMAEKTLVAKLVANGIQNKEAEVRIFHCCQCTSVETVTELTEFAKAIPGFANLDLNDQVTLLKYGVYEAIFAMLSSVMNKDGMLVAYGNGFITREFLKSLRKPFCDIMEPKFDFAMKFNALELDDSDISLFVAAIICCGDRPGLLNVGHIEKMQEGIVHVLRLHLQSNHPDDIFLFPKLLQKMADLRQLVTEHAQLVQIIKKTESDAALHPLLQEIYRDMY

[3] = target: T3, Peroxisome proliferator-activated receptor gamma (Mus musculus) (UniProt P37238); experiment: Agonist activity at PPARgamma in mouse 3T3-L1 cells assessed as increase in Idh3a RNA expression at 0.1 to 2.5 uM by qRT-PCR analysis; type: cell-based
T3 sequence (whole entry): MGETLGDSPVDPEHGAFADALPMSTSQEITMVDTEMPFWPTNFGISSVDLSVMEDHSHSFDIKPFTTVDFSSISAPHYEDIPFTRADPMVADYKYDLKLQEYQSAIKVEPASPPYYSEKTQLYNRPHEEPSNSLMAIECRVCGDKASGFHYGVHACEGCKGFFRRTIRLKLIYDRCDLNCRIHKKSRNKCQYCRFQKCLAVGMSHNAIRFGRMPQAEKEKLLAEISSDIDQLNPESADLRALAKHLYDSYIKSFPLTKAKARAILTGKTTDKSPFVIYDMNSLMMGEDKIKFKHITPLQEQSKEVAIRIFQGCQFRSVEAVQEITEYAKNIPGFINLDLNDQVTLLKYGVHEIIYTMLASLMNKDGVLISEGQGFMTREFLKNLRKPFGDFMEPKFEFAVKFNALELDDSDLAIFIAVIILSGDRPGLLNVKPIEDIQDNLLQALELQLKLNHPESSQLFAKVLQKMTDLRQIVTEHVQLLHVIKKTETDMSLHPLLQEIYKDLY

[4] = target: T3, Peroxisome proliferator-activated receptor gamma (Mus musculus); experiment: Agonist activity at PPARgamma in mouse 3T3-L1 cells assessed as increase in pck1 RNA expression at 0.1 to 2.5 uM by qRT-PCR analysis; type: cell-based
[5] = target: T3, Peroxisome proliferator-activated receptor gamma (Mus musculus); experiment: Agonist activity at PPARgamma in mouse 3T3-L1 cells assessed as increase in pck1 RNA expression at 5 to 10 uM by qRT-PCR analysis; type: cell-based
[6] = target: T3, Peroxisome proliferator-activated receptor gamma (Mus musculus); experiment: Agonist activity at PPARgamma in mouse 3T3-L1 cells assessed as increase in glut4 RNA expression at 5 to 10 uM by qRT-PCR analysis; type: cell-based
[7] = target: T4, Peroxisome proliferator-activated receptor alpha (Mus musculus) (UniProt P23204); experiment: Agonist activity at PPARalpha in mouse Hepa1-6 cells assessed as increase in cpt1a RNA expression at 1 to 5 uM by qRT-PCR analysis; type: cell-based
T4 sequence (whole entry): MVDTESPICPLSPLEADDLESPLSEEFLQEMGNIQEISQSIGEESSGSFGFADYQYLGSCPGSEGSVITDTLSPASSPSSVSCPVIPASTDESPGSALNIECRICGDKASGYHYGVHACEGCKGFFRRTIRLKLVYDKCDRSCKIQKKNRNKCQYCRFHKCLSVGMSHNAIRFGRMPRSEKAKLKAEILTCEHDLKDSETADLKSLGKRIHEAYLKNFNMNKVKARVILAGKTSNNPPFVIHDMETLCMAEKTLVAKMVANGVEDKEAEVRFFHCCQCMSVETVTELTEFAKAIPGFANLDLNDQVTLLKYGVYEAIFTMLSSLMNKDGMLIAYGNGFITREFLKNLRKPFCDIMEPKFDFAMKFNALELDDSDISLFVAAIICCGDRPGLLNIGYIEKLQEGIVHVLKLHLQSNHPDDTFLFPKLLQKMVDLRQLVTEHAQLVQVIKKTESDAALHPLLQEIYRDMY

[8] = target: T1, Peroxisome proliferator-activated receptor gamma; experiment: Synergistic agonist activity at human PPARgamma LBD assessed as biotin-labeled PGC1alpha (130 to 154 residues) co-activator recruitment after 1 hr in presence of 1 uM rosiglitazone by TR-FRET assay
[9] = target: T3, Peroxisome proliferator-activated receptor gamma (Mus musculus); experiment: Agonist activity at PPARgamma in mouse 3T3-L1 cells assessed as increase in CD36 RNA expression at 0.1 to 2.5 uM by qRT-PCR analysis; type: cell-based
[10] = target: T3, Peroxisome proliferator-activated receptor gamma (Mus musculus); experiment: Agonist activity at PPARgamma in mouse 3T3-L1 cells assessed as increase in adipoq RNA expression at 5 to 10 uM by qRT-PCR analysis; type: cell-based
[11] = target: T3, Peroxisome proliferator-activated receptor gamma (Mus musculus); experiment: Agonist activity at PPARgamma in mouse 3T3-L1 cells assessed as increase in adipoq RNA expression at 0.1 to 2.5 uM by qRT-PCR analysis; type: cell-based
3T3-L1 [12] = experiment: Induction of cells lipid accumulation in mouse 3T3L1 cells at 10 uM by Oil Red O staining-based assay; type: functional, cell-based
[13] = target: T4, Peroxisome proliferator-activated receptor alpha (Mus musculus); experiment: Agonist activity at PPARalpha in mouse Hepa1-6 cells assessed as increase in acadm RNA expression at 1 to 5 uM by qRT-PCR analysis; type: cell-based
[14] = target: T5, Peroxisome proliferator-activated receptor alpha (Homo sapiens) (UniProt Q07869); experiment: Transactivation of GAL4-tagged human PPARalpha LBD expressed in human HepG2 cells after 20 hrs by luciferase reporter gene assay relative to Wy-14,643; type: cell-based
T5 sequence (whole entry): T2 sequence (Q07869 whole entry)

[15] = target: T6, Peroxisome proliferator-activated receptor gamma (Homo sapiens) (UniProt P37231); experiment: Binding affinity wild type apo form of PPARgamma (unknown origin) assessed as inhibition of CDK5/p35-mediated PPARgamma phosphorylation at ser273 at 0.1 to 10 uM after 3.5 hrs by ELISA relative to rosiglitazone
T6 sequence (whole entry): T1 sequence (P37231 whole entry)

[16] = target: T4, Peroxisome proliferator-activated receptor alpha (Mus musculus); experiment: Agonist activity at PPARalpha in mouse Hepa1-6 cells assessed as increase in Acox1 RNA expression at 1 to 5 uM by qRT-PCR analysis; type: cell-based
3T3-L1 [17] = experiment: Induction of lipid accumulation in mouse 3T3L1 cells at 0.1 to 2.5 uM by Oil Red O staining-based assay; type: functional, cell-based
[18] = target: T3, Peroxisome proliferator-activated receptor gamma (Mus musculus); experiment: Agonist activity at PPARgamma in mouse 3T3-L1 cells assessed as increase in glut4 RNA expression at 0.1 to 2.5 uM by qRT-PCR analysis; type: cell-based
[19] = target: T3, Peroxisome proliferator-activated receptor gamma (Mus musculus); experiment: Agonist activity at PPARgamma in mouse 3T3-L1 cells accessed as increase in 2-deoxy-D-glucose uptake at 10 uM treated 17 hrs prior to insulin stimulation; type: cell-based
[20] = target: T1, Peroxisome proliferator-activated receptor gamma; experiment: Synergistic agonist activity at human PPARgamma LBD assessed as biotin-labeled PGC1alpha (130 to 154 residues) co-activator recruitment after 1 hr in presence of 10 uM rosiglitazone by TR-FRET assay
[21] = target: T3, Peroxisome proliferator-activated receptor gamma (Mus musculus); experiment: Agonist activity at PPARgamma in mouse 3T3-L1 cells assessed as increase in Gk RNA expression at 0.1 to 2.5 uM by qRT-PCR analysis; type: cell-based
[22] = target: T6, Peroxisome proliferator-activated receptor gamma (Homo sapiens); experiment: Agonist activity at human PPARgamma LBD assessed as induction of recruitment of biotin-labeled PGC1alpha (130 to 154 residues) co-activator at >1 uM after 1 hr by TR-FRET assay
[23] = target: T1, Peroxisome proliferator-activated receptor gamma; experiment: Synergistic agonist activity at human PPARgamma LBD assessed as biotin-labeled PGC1alpha (130 to 154 residues) co-activator recruitment after 1 hr in presence of 0.37 uM rosiglitazone by TR-FRET assay
[24] = target: T3, Peroxisome proliferator-activated receptor gamma (Mus musculus); experiment: Agonist activity at PPARgamma in mouse 3T3-L1 cells assessed as increase in Suclg1 RNA expression at 0.1 to 2.5 uM by qRT-PCR analysis; type: cell-based
[25] = target: T3, Peroxisome proliferator-activated receptor gamma (Mus musculus); experiment: Agonist activity at PPARgamma in mouse 3T3-L1 cells assessed as increase in fabp4 RNA expression at 0.1 to 2.5 uM by qRT-PCR analysis; type: cell-based
[26] = target: T3, Peroxisome proliferator-activated receptor gamma (Mus musculus); experiment: Agonist activity at PPARgamma in mouse 3T3-L1 cells assessed as increase in fabp4 RNA expression at 5 to 10 uM by qRT-PCR analysis; type: cell-based
[27] = target: T6, Peroxisome proliferator-activated receptor gamma (Homo sapiens); experiment: Transactivation of GAL4-tagged human PPARgamma LBD expressed in human HepG2 cells at 10^-9 to 10^-5 M after 20 hrs in presence of 5 uM PPARgamma antagonist GW9662 by luciferase reporter gene assay; type: cell-based
[28] = target: T3, Peroxisome proliferator-activated receptor gamma (Mus musculus); experiment: Synergistic agonist activity at PPARgamma in mouse 3T3-L1 cells accessed as increase in 2-deoxy-D-glucose uptake at 10 uM in presence of 0.3 uM rosiglitazone dosed 17 hrs prior to insulin stimulation
3T3-L1 [29] = experiment: Induction of lipid accumulation in mouse 3T3L1 cells at 2 uM by Oil Red O staining-based assay; type: functional, cell-based
3T3-L1 [30] = experiment: Induction of lipid accumulation in mouse 3T3L1 cells at 5 uM by Oil Red O staining-based assay; type: functional, cell-based

O=C(O)[C@H](Cc1ccc(-c2ccc(O[C@H](Cc3ccccc3)C(=O)O)cc2)cc1)Oc1ccc(-c2ccccc2)cc1
EC50 [1]: 18 µM | EC50 ([2]; read-out: EC50): 27 µM

O=C(O)[C@@H](Cc1ccc(-c2ccc(O[C@H](Cc3ccccc3)C(=O)O)cc2)cc1)Oc1ccc(-c2ccccc2)cc1
EC50 [1]: 15 µM | EC50 ([2]; hepg2): Not Active

O=C(O)[C@H](Cc1ccc(-c2ccccc2)cc1)Oc1ccc(-c2ccccc2)cc1
Activity [3]: inactive | Activity [4]: inactive | EC50 [1]: 0.12 µM | Activity [5]: inactive | Activity [6]: inactive | Activity [7]: Active | EC50 [8]: 2.85 µM | Activity [9]: inactive | Activity [10]: inactive | Activity [11]: inactive | Activity (3T3-L1 [12]): inactive | Activity [13]: Active | Emax [14]: 68% | Activity [15]: Active | Activity [16]: Active | Activity (3T3-L1 [17]): inactive | Activity [18]: inactive | Activity [19]: Active | EC50 [20]: 9.78 µM | Activity [21]: inactive | Activity [22]: Active | EC50 [23]: 3.69 µM | Activity [24]: inactive | Activity [25]: inactive | EC50 ([2]; read-out: EC50): 1.05 µM | Activity [26]: inactive | Activity [27]: Active | Activity [28]: Active

O=C(O)[C@@H](Cc1ccc(-c2ccccc2)cc1)Oc1ccc(-c2ccccc2)cc1
EC50 [1]: 0.89 µM | Emax [14]: 25% | EC50 ([2]; read-out: EC50): 2.6 µM

O=C(O)[C@H](Cc1ccc(-c2ccc(O[C@@H](Cc3ccccc3)C(=O)O)cc2)cc1)Oc1ccc(-c2ccccc2)cc1
EC50 [1]: 9.8 µM | EC50 ([2]; read-out: EC50): 5.9 µM

CN(CCOc1ccc(CC2SC(=O)NC2=O)cc1)c1ccccn1 (stereo unspecified)
Activity (3T3-L1 [29]): Active | Activity (3T3-L1 [30]): Active

O=C(O)[C@H](Cc1ccccc1)Oc1ccc(-c2ccc(C[C@@H](Oc3ccc(-c4ccccc4)cc3)C(=O)O)cc2)cc1
EC50 [1]: 25 µM | EC50 ([2]; read-out: EC50): 9.5 µM

Reference: ChEMBL document CHEMBL4229563, “Identification of the First PPARα/γ Dual Agonist Able To Bind to Canonical and Alternative Sites of PPARγ and To Inhibit Its Cdk5-Mediated Phosphorylation” (J Med Chem, 2018)
